Assays:
[1] = test system: Mycobacterium tuberculosis Erdman (autoluminescent); assay: FIC90 (Loewe) at 90% inhibition (log2); higher = more antagonistic
Procedure: (§1)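 DiaMOND equipotent two-drug combination dose responses against autoluminescent M. tuberculosis Erdman in 8 in vitro models. Read-out is OD600, or luminescence for the intracellular and dormancy models, normalised to untreated wells. Hill-fit Einf, AUC25 and GRinf are potency metrics; FIC50 and FIC90 are Loewe-additivity fractional inhibitory concentrations, given as log2 (negative = synergy). Replicates are averaged.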

[2] = test system: Mycobacterium tuberculosis Erdman (autoluminescent); assay: FIC50 (Loewe) at 50% inhibition (log2); higher = more antagonistic
Procedure: as §1

[3] = test system: Mycobacterium tuberculosis Erdman (autoluminescent); assay: Einf, fitted maximum growth inhibition of combination (fraction); higher = stronger maximal inhibition
Procedure: as §1

[4] = test system: Mycobacterium tuberculosis Erdman (autoluminescent); assay: AUC25, normalised area under dose response up to IC25 (fraction (0-1)); higher = more potent at low dose
Procedure: as §1

[5] = test system: Mycobacterium tuberculosis Erdman (autoluminescent); assay: GRinf, maximum normalised growth rate inhibition (unitless (-1 to 1)); higher = less effect (negative = killing)
Procedure: as §1

COc1nc2ccc(Br)cc2cc1[C@@H](c1ccccc1)[C@@](O)(CCN(C)C)c1cccc2ccccc12 [bedaquiline] + CC(=O)NC[C@H]1CN(c2ccc(N3CCOCC3)c(F)c2)C(=O)O1 [linezolid]
Conditions	AUC25, [4]	Einf, [3]	FIC50, [2]	FIC90, [1]	GRinf, [5]
in vitro model: acidic pH 5.7, time point: constant (~7 days, model-specific)	0.0967	0.859	-0.0767	–	-0.481
in vitro model: acidic pH 5.7, time point: terminal (~4-5 doublings, model-specific)	0.0907	0.973	0.322	0.271	-0.338
in vitro model: intracellular J774, time point: constant = terminal	–	0.779	–	–	0.0692

Conditions	AUC25, [4]	Einf, [3]	FIC50, [2]	FIC90, [1]	GRinf, [5]
in vitro model: butyrate, time point: constant (~7 days, model-specific)	0.0836	0.935	0.413	-0.0357	-0.0894
in vitro model: butyrate, time point: terminal (~4-5 doublings, model-specific)	0.0548	0.955	0.268	0.0422	-0.102
in vitro model: cholesterol 0.05 mM, time point: constant (~7 days, model-specific)	0.153	0.803	0.123	–	-0.345
in vitro model: cholesterol 0.05 mM, time point: terminal (~4-5 doublings, model-specific)	0.147	0.945	-0.0301	1.01	-0.326
in vitro model: cholesterol-high 0.2 mM, time point: constant (~7 days, model-specific)	0.12	0.99	-0.127	0.76	-0.87
in vitro model: cholesterol-high 0.2 mM, time point: terminal (~4-5 doublings, model-specific)	0.121	1	-0.334	0.414	-0.851
in vitro model: dormancy (butyrate + nitrate, low O2), time point: constant (~7 days, model-specific)	0.0774	0.933	0.344	0.554	0.113
in vitro model: dormancy (butyrate + nitrate, low O2), time point: terminal (~4-5 doublings, model-specific)	0.0484	0.984	0.546	0.263	-0.0845
in vitro model: standard 7H9 glycerol, time point: constant = terminal	0.0721	0.961	0.142	0.0991	-0.106
in vitro model: valerate, time point: constant (~7 days, model-specific)	0.104	0.901	1.02	1.36	-0.0681
in vitro model: valerate, time point: terminal (~4-5 doublings, model-specific)	0.067	0.947	0.743	0.916	-0.0615

COc1nc2ccc(Br)cc2cc1[C@@H](c1ccccc1)[C@@](O)(CCN(C)C)c1cccc2ccccc12 [bedaquiline] + CC(C)/N=c1\cc2n(-c3ccc(Cl)cc3)c3ccccc3nc-2cc1Nc1ccc(Cl)cc1 [clofazimine]
Conditions	AUC25, [4]	Einf, [3]	FIC50, [2]	FIC90, [1]	GRinf, [5]
in vitro model: acidic pH 5.7, time point: constant (~7 days, model-specific)	0.105	0.853	0.214	–	-0.265
in vitro model: acidic pH 5.7, time point: terminal (~4-5 doublings, model-specific)	0.102	0.986	-0.0261	0.282	-0.322
in vitro model: intracellular J774, time point: constant = terminal	–	0.986	–	-0.499	-0.483

Conditions	AUC25, [4]	Einf, [3]	FIC50, [2]	FIC90, [1]	GRinf, [5]
in vitro model: butyrate, time point: constant (~7 days, model-specific)	0.0673	0.946	-0.498	-0.794	-0.0975
in vitro model: butyrate, time point: terminal (~4-5 doublings, model-specific)	0.0515	0.979	-0.353	-0.858	-0.101
in vitro model: cholesterol 0.05 mM, time point: constant (~7 days, model-specific)	0.0912	0.741	-0.628	–	-0.147
in vitro model: cholesterol 0.05 mM, time point: terminal (~4-5 doublings, model-specific)	0.0989	0.945	0.39	0.028	-0.224
in vitro model: cholesterol-high 0.2 mM, time point: constant (~7 days, model-specific)	0.0661	0.946	-0.437	-0.58	-0.413
in vitro model: cholesterol-high 0.2 mM, time point: terminal (~4-5 doublings, model-specific)	0.0725	0.997	0.0406	-0.388	-0.62
in vitro model: dormancy (butyrate + nitrate, low O2), time point: constant (~7 days, model-specific)	0.0657	0.905	-0.281	-0.778	0.168
in vitro model: dormancy (butyrate + nitrate, low O2), time point: terminal (~4-5 doublings, model-specific)	0.067	0.988	-0.558	-0.863	-0.267
in vitro model: standard 7H9 glycerol, time point: constant = terminal	0.0822	0.974	-0.132	-0.648	-0.119
in vitro model: valerate, time point: constant (~7 days, model-specific)	0.112	0.94	-0.453	-1.82	-0.151
in vitro model: valerate, time point: terminal (~4-5 doublings, model-specific)	0.0649	0.956	0.0093	-0.0427	-0.0795

COc1nc2ccc(Br)cc2cc1[C@@H](c1ccccc1)[C@@](O)(CCN(C)C)c1cccc2ccccc12 [bedaquiline] + CC[C@@H](CO)NCCN[C@@H](CC)CO [ethambutol]
Conditions	AUC25, [4]	Einf, [3]	FIC50, [2]	FIC90, [1]	GRinf, [5]
in vitro model: acidic pH 5.7, time point: constant (~7 days, model-specific)	0.133	0.831	0.111	–	-0.514
in vitro model: acidic pH 5.7, time point: terminal (~4-5 doublings, model-specific)	0.0618	0.961	0.595	-0.0708	-0.42
in vitro model: intracellular J774, time point: constant = terminal	–	1	–	-0.00203	-0.728

Conditions	AUC25, [4]	Einf, [3]	FIC50, [2]	FIC90, [1]	GRinf, [5]
in vitro model: butyrate, time point: constant (~7 days, model-specific)	0.0683	0.948	0.277	–	-0.0865
in vitro model: butyrate, time point: terminal (~4-5 doublings, model-specific)	0.0577	0.978	0.142	-0.418	-0.0993
in vitro model: cholesterol 0.05 mM, time point: constant (~7 days, model-specific)	0.0646	0.736	0.507	–	-0.236
in vitro model: cholesterol 0.05 mM, time point: terminal (~4-5 doublings, model-specific)	0.0688	0.956	0.89	0.731	-0.404
in vitro model: cholesterol-high 0.2 mM, time point: constant (~7 days, model-specific)	0.026	0.994	0.819	–	-0.858
in vitro model: cholesterol-high 0.2 mM, time point: terminal (~4-5 doublings, model-specific)	0.0312	1	0.85	0.757	-0.687
in vitro model: dormancy (butyrate + nitrate, low O2), time point: constant (~7 days, model-specific)	0.139	0.866	1.04	–	0.338
in vitro model: dormancy (butyrate + nitrate, low O2), time point: terminal (~4-5 doublings, model-specific)	0.131	0.995	0.336	1.24	-0.154
in vitro model: standard 7H9 glycerol, time point: constant = terminal	0.0591	0.949	0.176	-0.108	-0.0657
in vitro model: valerate, time point: constant (~7 days, model-specific)	0.108	0.953	0.0258	–	-0.286
in vitro model: valerate, time point: terminal (~4-5 doublings, model-specific)	0.0819	0.979	0.247	-0.129	-0.0998

COc1nc2ccc(Br)cc2cc1[C@@H](c1ccccc1)[C@@](O)(CCN(C)C)c1cccc2ccccc12 [bedaquiline] + CO[C@H]1/C=C/O[C@@]2(C)Oc3c(C)c(O)c4c(O)c(c(/C=N/N5CCN(C6CCCC6)CC5)c(O)c4c3C2=O)NC(=O)/C(C)=C\C=C\[C@H](C)[C@H](O)[C@@H](C)[C@@H](O)[C@@H](C)[C@H](OC(C)=O)[C@@H]1C [rifapentine]
Conditions	AUC25, [4]	Einf, [3]	FIC50, [2]	FIC90, [1]	GRinf, [5]
in vitro model: acidic pH 5.7, time point: constant (~7 days, model-specific)	0.0995	0.969	0.322	0.172	-0.693
in vitro model: acidic pH 5.7, time point: terminal (~4-5 doublings, model-specific)	0.0881	0.998	0.392	0.396	-0.38
in vitro model: intracellular J774, time point: constant = terminal	–	0.943	–	0.658	-0.214

Conditions	AUC25, [4]	Einf, [3]	FIC50, [2]	FIC90, [1]	GRinf, [5]
in vitro model: butyrate, time point: constant (~7 days, model-specific)	0.0889	0.933	0.485	0.365	-0.0857
in vitro model: butyrate, time point: terminal (~4-5 doublings, model-specific)	0.0717	0.976	0.482	0.362	-0.102
in vitro model: cholesterol 0.05 mM, time point: constant (~7 days, model-specific)	0.119	0.787	0.249	–	-0.201
in vitro model: cholesterol 0.05 mM, time point: terminal (~4-5 doublings, model-specific)	0.0716	0.93	0.341	0.609	-0.223
in vitro model: cholesterol-high 0.2 mM, time point: constant (~7 days, model-specific)	0.0555	0.969	0.211	-0.159	-0.659
in vitro model: cholesterol-high 0.2 mM, time point: terminal (~4-5 doublings, model-specific)	0.0435	1	0.367	0.259	-0.615
in vitro model: dormancy (butyrate + nitrate, low O2), time point: constant (~7 days, model-specific)	0.072	0.941	0.549	1	0.16
in vitro model: dormancy (butyrate + nitrate, low O2), time point: terminal (~4-5 doublings, model-specific)	0.0609	0.981	0.481	0.635	-0.111
in vitro model: standard 7H9 glycerol, time point: constant = terminal	0.0637	0.949	0.236	0.112	-0.0779
in vitro model: valerate, time point: constant (~7 days, model-specific)	0.0652	0.899	0.621	–	-0.0573
in vitro model: valerate, time point: terminal (~4-5 doublings, model-specific)	0.0336	0.955	0.678	0.464	-0.0667

COc1nc2ccc(Br)cc2cc1[C@@H](c1ccccc1)[C@@](O)(CCN(C)C)c1cccc2ccccc12 [bedaquiline] + CO[C@H]1/C=C/O[C@@]2(C)Oc3c(C)c(O)c4c(O)c(c(/C=N/N5CCN(C)CC5)c(O)c4c3C2=O)NC(=O)/C(C)=C\C=C\[C@H](C)[C@H](O)[C@@H](C)[C@@H](O)[C@@H](C)[C@H](OC(C)=O)[C@@H]1C [rifampicin]
Conditions	AUC25, [4]	Einf, [3]	FIC50, [2]	FIC90, [1]	GRinf, [5]
in vitro model: acidic pH 5.7, time point: constant (~7 days, model-specific)	0.11	0.966	0.235	-0.844	-0.709
in vitro model: acidic pH 5.7, time point: terminal (~4-5 doublings, model-specific)	0.0796	0.995	0.0554	-0.216	-0.353
in vitro model: intracellular J774, time point: constant = terminal	–	0.963	–	0.648	-0.255

Conditions	AUC25, [4]	Einf, [3]	FIC50, [2]	FIC90, [1]	GRinf, [5]
in vitro model: butyrate, time point: constant (~7 days, model-specific)	0.112	0.958	0.393	0.174	-0.181
in vitro model: butyrate, time point: terminal (~4-5 doublings, model-specific)	0.0949	0.988	0.398	0.429	-0.18
in vitro model: cholesterol 0.05 mM, time point: constant (~7 days, model-specific)	0.104	0.722	0.0154	–	-0.0966
in vitro model: cholesterol 0.05 mM, time point: terminal (~4-5 doublings, model-specific)	0.0851	0.919	0.343	-0.364	-0.181
in vitro model: cholesterol-high 0.2 mM, time point: constant (~7 days, model-specific)	0.0637	0.982	0.194	-0.00523	-0.639
in vitro model: cholesterol-high 0.2 mM, time point: terminal (~4-5 doublings, model-specific)	0.058	1	0.318	0.223	-0.64
in vitro model: dormancy (butyrate + nitrate, low O2), time point: constant (~7 days, model-specific)	0.0984	0.921	0.234	0.896	0.149
in vitro model: dormancy (butyrate + nitrate, low O2), time point: terminal (~4-5 doublings, model-specific)	0.0644	0.985	0.332	0.603	-0.312
in vitro model: standard 7H9 glycerol, time point: constant = terminal	0.0718	0.93	0.22	0.326	-0.0375
in vitro model: valerate, time point: constant (~7 days, model-specific)	0.0727	0.914	0.714	–	-0.108
in vitro model: valerate, time point: terminal (~4-5 doublings, model-specific)	0.0313	0.956	0.779	0.467	-0.0734

From the supplement of paper PMC8617591
